In patent US20180162845A1, “ENHANCER OF ZESTE HOMOLOG 2 INHIBITORS” (GLAXOSMITHKLINE INTELLECTUAL PROPERTY (NO.2) LIMITED, priority 2015, published 2018):

Target: T1, EZH2 within the PRC2 complex (Homo sapiens, UniProt Q15910)
T1 construct: FLAG; made in house; host or cells: Sf9 cells
Experiment: EZH2 methyltransferase scintillation proximity assay (SPA)
Type: biochemical
Settings: Human PRC2 5 member complex (FLAG-EZH2, EED, SUZ12, RbAp48, AEBP2), biotinylated histone H3K27 peptide, 3H-SAM, 60 min room temperature; ≤10 nM approaches limit of detection
Description: Compounds contained herein were evaluated for their ability to inhibit the methyltransferase activity of EZH2 within the PRC2 complex. Human PRC2 complex was prepared by co-expressing each of the 5 member proteins (FLAG-EZH2, EED, SUZ12, RbAp48, AEBP2) in Sf9 cells followed by co-purification. Enzyme activity was measured in a scintillation proximity assay (SPA) where a tritiated methyl group is transferred from 3H-SAM to a lysine residue on a biotinylated, unmethylated peptide substrate derived from histone H3. The peptides were captured on streptavidin-coated SPA beads and the resulting signal was read on a ViewLux plate reader.
• 1. Prepare 10 mM stock of compounds from solid in 100% DMSO. • 2. Set up an 11-point serial dilution (1:4 dilution, top concentration 10 mM) in 100% DMSO for each test compound in a 384 well plate leaving columns 6 and 18 for DMSO controls. • 3. Dispense 10 nL of compound from the dilution plate into reaction plates (Corning, 384-well polystyrene NBS, Cat# 3673).
• 1. 1× Base Buffer, 50 mM Tris-HCl, pH 8, 2 mM MgCl2: Per 1 L of base buffer, combine 1 M Tris-HCl, pH 8 (50 mL), 1 M MgCl2 (2 mL), and distilled water (948 mL). • 2. 1× Assay Buffer: Per 10 mL of 1× Assay Buffer, combine 1× Base Buffer (9.96 mL), 1 M DTT (40 uL), and 10% Tween-20 (1 uL) to provide a final concentration of 50 mM Tris-HCl, pH 8, 2 mM MgCl2, 4 mM DTT, 0.001% Tween-20. • 3. 2× Enzyme Solution: Per 10 mL of 2× Enzyme Solution, combine 1× Assay Buffer (9.99 mL) and 3.24 uM EZH2 5 member complex (6.17 uL) to provide a final enzyme concentration of 1 nM. • 4. SPA Bead Solution: Per 1 mL of SPA Bead Solution, combine Streptavidin coated SPA beads (PerkinElmer, Cat #RPNQ0261, 40 mg) and 1× Assay Buffer (1 mL) to provide a working concentration of 40 mg/mL. • 5. 2× Substrate Solution: Per 10 mL of 2× Substrate Solution, combine 40 mg/mL SPA Bead Solution (375 uL), 1 mM biotinylated histone H3K27 peptide (200 uL), 12.5 uM 3H-SAM (240 uL; 1 mCi/mL), 1 mM cold SAM (57 uL), and 1× Assay Buffer (9.13 mL) to provide a final concentration of 0.75 mg/mL SPA Bead Solution, 10 uM biotinylated histone H3K27 peptide, 0.15 uM 3H-SAM (˜12 uCi/mL 3H-SAM), and 2.85 uM cold SAM. • 6. 2.67× Quench Solution: Per 10 mL of 2.67× Quench Solution, combine 1 Assay Buffer (9.73 mL) and 10 mM cold SAM (267 uL) to provide a final concentration of 100 uM cold SAM.
• 1. Stamp 10 nL/well of 1000× Compound to test wells (as noted above). • 2. Stamp 10 nL/well of 100% DMSO to columns 6 & 18 (high and low controls, respectively).
• 1. Dispense 5 uL/well of 1× Assay Buffer to column 18 (low control reactions). • 2. Dispense 5 uL/well of 2× Substrate Solution to columns 1-24 (note: substrate solution should be mixed to ensure homogeneous bead suspension before dispensing into matrix reservoir). • 3. Dispense 5 uL/well of 2× Enzyme Solution to columns 1-17, 19-24. • 4. Incubate the reaction for 60 min at room temperature.
• 1. Dispense 6 uL/well of the 2.67× Quench Solution to columns 1-24. • 2. Seal assay plates and spin for ˜1 min at 500 rpm. • 3. Dark adapt plates in the ViewLux instrument for 15-60 min. Read plates • 1. Read the assay plates on the Viewlux Plate Reader utilizing the 613 nm emission filter or clear filter (300 s exposure). • Reagent addition can be done manually or with automated liquid handler.
Percent inhibition was calculated relative to the DMSO control for each compound concentration and the resulting values were fit using standard IC50 fitting parameters within the ABASE data fitting software package.

T1 sequence (Q15910 whole entry): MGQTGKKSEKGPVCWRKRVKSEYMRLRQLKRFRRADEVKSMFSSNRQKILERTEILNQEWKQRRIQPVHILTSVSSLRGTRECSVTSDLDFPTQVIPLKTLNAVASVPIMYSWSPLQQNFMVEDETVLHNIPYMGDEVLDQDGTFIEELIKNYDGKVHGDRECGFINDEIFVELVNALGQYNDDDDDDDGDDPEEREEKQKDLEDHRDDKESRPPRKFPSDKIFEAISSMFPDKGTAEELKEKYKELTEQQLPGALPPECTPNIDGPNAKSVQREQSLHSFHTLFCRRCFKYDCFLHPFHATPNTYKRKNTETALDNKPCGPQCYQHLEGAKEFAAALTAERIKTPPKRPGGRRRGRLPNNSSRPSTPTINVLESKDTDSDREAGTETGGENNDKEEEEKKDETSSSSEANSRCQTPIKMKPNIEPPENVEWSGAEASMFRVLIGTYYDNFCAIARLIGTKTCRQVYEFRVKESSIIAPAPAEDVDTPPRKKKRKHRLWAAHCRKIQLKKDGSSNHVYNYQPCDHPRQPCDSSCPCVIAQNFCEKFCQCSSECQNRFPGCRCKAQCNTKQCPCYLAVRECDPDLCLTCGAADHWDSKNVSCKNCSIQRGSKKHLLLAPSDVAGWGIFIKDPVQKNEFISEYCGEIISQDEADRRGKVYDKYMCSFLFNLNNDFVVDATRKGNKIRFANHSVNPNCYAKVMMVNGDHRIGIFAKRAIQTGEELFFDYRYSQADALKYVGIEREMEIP
T1 sequence (O75530 whole entry partner): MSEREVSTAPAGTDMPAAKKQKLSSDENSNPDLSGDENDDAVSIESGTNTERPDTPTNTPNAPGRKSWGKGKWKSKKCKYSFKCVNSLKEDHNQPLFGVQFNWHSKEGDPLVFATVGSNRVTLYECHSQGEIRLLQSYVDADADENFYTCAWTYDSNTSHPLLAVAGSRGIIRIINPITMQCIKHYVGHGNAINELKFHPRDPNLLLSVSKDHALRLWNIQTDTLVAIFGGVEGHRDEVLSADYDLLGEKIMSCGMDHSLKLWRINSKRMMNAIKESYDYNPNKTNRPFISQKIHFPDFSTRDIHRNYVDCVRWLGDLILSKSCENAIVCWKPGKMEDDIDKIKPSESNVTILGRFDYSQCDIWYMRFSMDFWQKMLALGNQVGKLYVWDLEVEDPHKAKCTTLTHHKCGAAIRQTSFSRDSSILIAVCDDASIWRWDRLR
T1 sequence (Q15022 whole entry partner): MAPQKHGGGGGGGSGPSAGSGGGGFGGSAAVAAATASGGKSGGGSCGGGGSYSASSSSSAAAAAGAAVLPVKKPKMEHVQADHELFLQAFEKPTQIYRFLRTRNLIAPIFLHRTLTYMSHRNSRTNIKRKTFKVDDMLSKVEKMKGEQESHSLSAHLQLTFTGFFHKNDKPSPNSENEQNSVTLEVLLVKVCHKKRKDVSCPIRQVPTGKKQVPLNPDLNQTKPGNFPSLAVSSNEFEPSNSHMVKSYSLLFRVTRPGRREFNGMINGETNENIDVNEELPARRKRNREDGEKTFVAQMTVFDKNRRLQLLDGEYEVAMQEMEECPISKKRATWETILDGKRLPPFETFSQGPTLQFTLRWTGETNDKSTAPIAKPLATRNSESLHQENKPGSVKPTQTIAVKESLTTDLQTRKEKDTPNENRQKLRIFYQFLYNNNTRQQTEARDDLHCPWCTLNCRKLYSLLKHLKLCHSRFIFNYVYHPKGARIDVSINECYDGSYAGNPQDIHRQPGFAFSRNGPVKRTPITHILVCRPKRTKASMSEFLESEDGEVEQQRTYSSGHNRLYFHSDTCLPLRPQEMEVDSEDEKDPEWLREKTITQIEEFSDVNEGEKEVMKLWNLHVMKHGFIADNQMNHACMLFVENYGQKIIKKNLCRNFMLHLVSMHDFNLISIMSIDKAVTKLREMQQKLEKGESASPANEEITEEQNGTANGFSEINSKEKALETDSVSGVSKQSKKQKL
T1 sequence (Q09028 whole entry partner): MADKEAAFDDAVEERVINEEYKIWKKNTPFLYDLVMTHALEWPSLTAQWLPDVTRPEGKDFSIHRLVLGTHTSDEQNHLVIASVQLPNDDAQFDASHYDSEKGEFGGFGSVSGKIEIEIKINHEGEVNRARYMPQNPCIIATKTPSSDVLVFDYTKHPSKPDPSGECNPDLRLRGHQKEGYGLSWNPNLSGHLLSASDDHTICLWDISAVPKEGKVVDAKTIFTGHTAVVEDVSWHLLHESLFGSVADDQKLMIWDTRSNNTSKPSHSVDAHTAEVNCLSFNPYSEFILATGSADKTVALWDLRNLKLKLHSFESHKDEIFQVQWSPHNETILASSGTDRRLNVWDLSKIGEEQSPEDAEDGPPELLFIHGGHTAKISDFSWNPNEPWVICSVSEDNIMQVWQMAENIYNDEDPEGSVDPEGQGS
T1 sequence (Q6ZN18 whole entry partner): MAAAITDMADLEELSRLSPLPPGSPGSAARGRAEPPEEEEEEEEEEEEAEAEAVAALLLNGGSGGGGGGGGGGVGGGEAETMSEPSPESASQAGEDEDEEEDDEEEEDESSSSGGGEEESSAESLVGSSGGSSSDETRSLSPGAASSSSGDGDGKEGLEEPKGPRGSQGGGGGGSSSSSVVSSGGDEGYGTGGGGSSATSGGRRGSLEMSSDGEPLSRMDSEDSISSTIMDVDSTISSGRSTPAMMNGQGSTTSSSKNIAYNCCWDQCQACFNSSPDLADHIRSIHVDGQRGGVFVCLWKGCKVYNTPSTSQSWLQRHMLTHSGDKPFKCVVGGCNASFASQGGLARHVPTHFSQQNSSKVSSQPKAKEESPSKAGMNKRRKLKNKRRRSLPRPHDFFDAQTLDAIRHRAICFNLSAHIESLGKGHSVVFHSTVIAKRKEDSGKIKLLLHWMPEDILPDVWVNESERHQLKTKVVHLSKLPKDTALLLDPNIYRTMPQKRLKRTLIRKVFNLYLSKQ

| Compound | IC50 |
| --- | --- |
| CC[C@@H](c1sc2c(c1C)C(=O)N(Cc1c(C)cc(C)[nH]c1=O)CC2)C1CCN(Cc2ccccn2)CC1 [Example 1, (R)-5-((4,6-dimethyl-2-oxo-1,2-dihydropyridin-3-yl)methyl)-3-methyl-2-(1-(1-(pyridin-2-ylmethyl)piperidin-4-yl)propyl)-6,7-dihydrothieno[3,2-c]pyridin-4(5H)-one] | ≤ 0.01 µM |
| COc1cc(CN2CCC([C@@H](C)c3sc4c(c3C)C(=O)N(Cc3c(C)cc(C)[nH]c3=O)CCC4)CC2)ccn1 [Example 7, (R)-5-((4,6-Dimethyl-2-oxo-1,2-dihydropyridin-3-yl)methyl)-2-(1-(1-((2-methoxypyridin-4-yl)methyl)piperidin-4-yl)ethyl)-3-methyl-5,6,7,8-tetrahydro-4H-thieno[3,2-c]azepin-4-one] | ≤ 0.01 µM |
| Cc1cc(C)c(CN2CCCc3sc([C@H](C)C4CCN(Cc5ccc(Cl)cn5)CC4)c(C)c3C2=O)c(=O)[nH]1 [Example 8] | ≤ 0.01 µM |
| Cc1cc(C)c(CN2CCCc3sc([C@H](C)C4CCN(Cc5ccccc5)CC4)c(C)c3C2=O)c(=O)[nH]1 [Example 10, (R)-2-(1-(1-Benzylpiperidin-4-yl)ethyl)-5-((4,6-dimethyl-2-oxo-1,2-dihydropyridin-3-yl)methyl)-3-methyl-5,6,7,8-tetrahydro-4H-thieno[3,2-c]azepin-4-one] | ≤ 0.01 µM |
| COc1cc(CN2CCC([C@@H](C)c3sc4c(c3C)C(=O)N(Cc3c(C)cc(C)[nH]c3=O)CC4)CC2)ccn1 [Example 11, (R)-5-((4,6-Dimethyl-2-oxo-1,2-dihydropyridin-3-yl)methyl)-2-(1-(1-((2-methoxypyridin-4-yl)methyl)piperidin-4-yl)ethyl)-3-methyl-6,7-dihydrothieno[3,2-c]pyridin-4(5H)-one] | ≤ 0.01 µM |
| Cc1cc(C)c(CN2CCCc3sc([C@H](C)C4CCN(CC5CCCCC5)CC4)c(C)c3C2=O)c(=O)[nH]1 [Example 13, (R)-2-(1-(1-(cyclohexylmethyl)piperidin-4-yl)ethyl)-5-((4,6-dimethyl-2-oxo-1,2-dihydropyridin-3-yl)methyl)-3-methyl-5,6,7,8-tetrahydro-4H-thieno[3,2-c]azepin-4-one] | ≤ 0.01 µM |
| Cc1cc(C)c(CN2CCCc3sc([C@H](C)C4CCN(CC5(C)CCCCC5)CC4)c(C)c3C2=O)c(=O)[nH]1 [Example 14, (R)-5-((4,6-Dimethyl-2-oxo-1,2-dihydropyridin-3-yl)methyl)-3-methyl-2-(1-(1-((1-methylcyclohexyl)methyl)piperidin-4-yl)ethyl)-5,6,7,8-tetrahydro-4H-thieno[3,2-c]azepin-4-one] | ≤ 0.01 µM |

Other lines, results leading:

| IC50 | Compound |
| --- | --- |
| ≤ 0.01 µM | CC[C@@H](c1sc2c(c1C)C(=O)N(Cc1c(C)cc(C)[nH]c1=O)CC2)C1CCN(Cc2ccccc2)CC1 [Example 2, (R)-2-(1-(1-Benzylpiperidin-4-yl)propyl)-5-((4,6-dimethyl-2-oxo-1,2-dihydropyridin-3-yl)methyl)-3-methyl-6,7-dihydrothieno[3,2-c]pyridin-4(5H)-one] |
| ≤ 0.01 µM | CC[C@@H](c1sc2c(c1C)C(=O)N(Cc1c(C)cc(C)[nH]c1=O)CC2)C1CCN(Cc2ccncc2)CC1 [Example 3, (R)-5-((4,6-Dimethyl-2-oxo-1,2-dihydropyridin-3-yl)methyl)-3-methyl-2-(1-(1-(pyridin-4-ylmethyl)piperidin-4-yl)propyl)-6,7-dihydrothieno[3,2-c]pyridin-4(5H)-one] |
| ≤ 0.01 µM | CC[C@@H](c1sc2c(c1C)C(=O)N(Cc1c(C)cc(C)[nH]c1=O)CC2)C1CCN(Cc2ccc(Cl)cn2)CC1 [Example 4, (R)-2-(1-(1-((5-Chloropyridin-2-yl)methyl)piperidin-4-yl)propyl)-5-((4,6-dimethyl-2-oxo-1,2-dihydropyridin-3-yl)methyl)-3-methyl-6,7-dihydrothieno[3,2-c]pyridin-4(5H)-one] |
| ≤ 0.01 µM | CCC(=C1CCN(Cc2ccnc(OC)c2)CC1)c1scc(C(=O)NCc2c(C)cc(C)[nH]c2=O)c1C [Example 5, N-((4,6-Dimethyl-2-oxo-1,2-dihydropyridin-3-yl)methyl)-5-(1-(1-((2-methoxypyridin-4-yl)methyl)piperidin-4-ylidene)propyl)-4-methylthiophene-3-carboxamide] |
| ≤ 0.01 µM | Cc1cc(C)c(CN2CCCc3sc([C@H](C)C4CCN(Cc5ccccn5)CC4)c(C)c3C2=O)c(=O)[nH]1 [Example 6, (R)-5-((4,6-Dimethyl-2-oxo-1,2-dihydropyridin-3-yl)methyl)-3-methyl-2-(1-(1-(pyridin-2-ylmethyl)piperidin-4-yl)ethyl)-5,6,7,8-tetrahydro-4H-thieno[3,2-c]azepin-4-one] |
| ≤ 0.01 µM | Cc1cccc(CN2CCC([C@@H](C)c3sc4c(c3C)C(=O)N(Cc3c(C)cc(C)[nH]c3=O)CCC4)CC2)n1 [Example 9, (R)-5-((4,6-Dimethyl-2-oxo-1,2-dihydropyridin-3-yl)methyl)-3-methyl-2-(1-(1-((6-methylpyridin-2-yl)methyl)piperidin-4-yl)ethyl)-5,6,7,8-tetrahydro-4H-thieno[3,2-c]azepin-4-one] |
| ≤ 0.01 µM | COc1cccc(CN2CCC([C@@H](C)c3sc4c(c3C)C(=O)N(Cc3c(C)cc(C)[nH]c3=O)CCC4)CC2)n1 [Example 12, (R)-5-((4,6-Dimethyl-2-oxo-1,2-dihydropyridin-3-yl)methyl)-2-(1-(1-((6-methoxypyridin-2-yl)methyl)piperidin-4-yl)ethyl)-3-methyl-5,6,7,8-tetrahydro-4H-thieno[3,2-c]azepin-4-one] |
